{
  "source": "ChEMBL document CHEMBL1156457",
  "about": "“Mechanisms for picrotoxinin and picrotin blocks of alpha2 homomeric glycine receptors” (J Biol Chem, 2007)",
  "key": {"[1]": {"target": "T1, Glycine receptor subunit alpha-2 (Rattus norvegicus) (UniProt P22771)", "T1 sequence (whole entry)": "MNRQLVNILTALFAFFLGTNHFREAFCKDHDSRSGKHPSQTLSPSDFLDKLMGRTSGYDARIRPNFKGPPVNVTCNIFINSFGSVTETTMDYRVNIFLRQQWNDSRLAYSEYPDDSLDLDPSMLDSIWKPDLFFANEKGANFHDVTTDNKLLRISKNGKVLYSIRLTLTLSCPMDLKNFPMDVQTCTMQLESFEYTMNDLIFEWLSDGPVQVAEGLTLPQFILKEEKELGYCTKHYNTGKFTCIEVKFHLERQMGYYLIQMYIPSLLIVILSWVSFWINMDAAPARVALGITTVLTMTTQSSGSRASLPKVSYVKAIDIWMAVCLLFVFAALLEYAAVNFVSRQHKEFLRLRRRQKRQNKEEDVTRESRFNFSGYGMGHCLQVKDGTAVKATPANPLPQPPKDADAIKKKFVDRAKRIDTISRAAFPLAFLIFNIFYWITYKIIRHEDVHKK", "test": "Inhibition of rat alpha2 homomeric glycine receptor expressed in CHO cells assessed as inhibition of 300 uM glycine-elicited current at 3 uM by outside patch clamp technique", "type": "cell-based"}, "[2]": {"target": "T2, Glycine receptor subunit alpha-2 (Rattus norvegicus, UniProt P22771)", "T2 sequence (P22771 whole entry)": "T1 sequence (whole entry)", "test": "Inhibition of rat alpha2 homomeric glycine receptor expressed in CHO cells assessed as inhibition of 300 uM glycine-elicited current by outside patch clamp technique", "type": "cell-based"}, "[3]": {"target": "T1, Glycine receptor subunit alpha-2 (Rattus norvegicus)", "test": "Inhibition of rat alpha2 homomeric glycine receptor expressed in CHO cells assessed as inhibition of 300 uM glycine-elicited current at 100 uM at +50 mV voltage by outside patch clamp technique", "type": "cell-based"}, "[4]": {"target": "T1, Glycine receptor subunit alpha-2 (Rattus norvegicus)", "test": "Inhibition of rat alpha2 homomeric glycine receptor expressed in CHO cells assessed as inhibition of 300 uM glycine-elicited current at 100 uM at -50 mV voltage by outside patch clamp technique", "type": "cell-based"}, "[5]": {"target": "T1, Glycine receptor subunit alpha-2 (Rattus norvegicus)", "test": "Inhibition of rat alpha2 homomeric glycine receptor expressed in CHO cells assessed as inhibition of deactivation time constant by outside patch clamp technique", "type": "cell-based"}, "[6]": {"target": "T1, Glycine receptor subunit alpha-2 (Rattus norvegicus)", "test": "Effect on rat alpha2 homomeric glycine receptor expressed in CHO cells assessed as shortened single receptor burst opening in response to glycine-pulse at 30 uM by outside patch clamp technique", "type": "cell-based"}, "[7]": {"target": "T1, Glycine receptor subunit alpha-2 (Rattus norvegicus)", "test": "Effect on rat alpha2 homomeric glycine receptor expressed in CHO cells assessed as flickering of channel in response to glycine-pulse at 30 uM by outside patch clamp technique", "type": "cell-based"}, "[8]": {"target": "T1, Glycine receptor subunit alpha-2 (Rattus norvegicus)", "test": "Effect on rat alpha2 homomeric glycine receptor expressed in CHO cells assessed as decrease in channel mean open time at 30 uM by outside patch clamp technique relative to control", "type": "cell-based"}, "[9]": {"target": "T1, Glycine receptor subunit alpha-2 (Rattus norvegicus)", "test": "Effect on rat alpha2 homomeric glycine receptor expressed in CHO cells assessed as decrease in channel mean open time by outside patch clamp technique relative to control", "type": "cell-based"}, "[10]": {"target": "T1, Glycine receptor subunit alpha-2 (Rattus norvegicus)", "test": "Effect on rat alpha2 homomeric glycine receptor expressed in CHO cells assessed as decrease in activation phase of glycine response at 30 uM by outside patch clamp technique", "type": "cell-based"}, "[11]": {"target": "T1, Glycine receptor subunit alpha-2 (Rattus norvegicus)", "test": "Effect on rat alpha2 homomeric glycine receptor expressed in CHO cells assessed as change in rising time constant of glycine response at 300 uM by outside patch clamp technique", "type": "cell-based"}, "[12]": {"target": "T1, Glycine receptor subunit alpha-2 (Rattus norvegicus)", "test": "Effect on rat alpha2 homomeric glycine receptor expressed in CHO cells assessed as change in relative area of rising time constant of glycine response at 300 uM by outside patch clamp technique", "type": "cell-based"}, "[13]": {"target": "T1, Glycine receptor subunit alpha-2 (Rattus norvegicus)", "test": "Effect on rat alpha2 homomeric glycine receptor expressed in CHO cells assessed as glycine-evoked response at 100 uM administered before glycine challenge by outside patch clamp technique", "type": "cell-based"}, "[14]": {"target": "T1, Glycine receptor subunit alpha-2 (Rattus norvegicus)", "test": "Effect on rat alpha2 homomeric glycine receptor expressed in CHO cells assessed as shortened deactivation phase of glycine-evoked response at 100 uM administered before glycine challenge by outside patch clamp technique", "type": "cell-based"}, "[15]": {"target": "T1, Glycine receptor subunit alpha-2 (Rattus norvegicus)", "test": "Inhibition of rat alpha2 homomeric glycine receptor expressed in CHO cells assessed as inhibition of 30 mM glycine-elicited current at 300 uM by outside patch clamp technique"}, "[16]": {"target": "T1, Glycine receptor subunit alpha-2 (Rattus norvegicus)", "test": "Inhibition of rat alpha2 homomeric glycine receptor expressed in CHO cells assessed as inhibition of 300 uM glycine-elicited current at 300 uM by outside patch clamp technique"}, "[17]": {"target": "T1, Glycine receptor subunit alpha-2 (Rattus norvegicus)", "test": "(§1) Inhibition of rat alpha2 homomeric glycine receptor expressed in CHO cells assessed as inhibition of 300 uM glycine-elicited current at 3 uM at +50 mV voltage by outside patch clamp technique", "type": "cell-based"}, "[18]": {"target": "T1, Glycine receptor subunit alpha-2 (Rattus norvegicus)", "test": "Inhibition of rat alpha2 homomeric glycine receptor expressed in CHO cells assessed as inhibition of 300 uM glycine-elicited current at 10 uM by outside patch clamp technique", "type": "cell-based"}, "[19]": {"target": "T1, Glycine receptor subunit alpha-2 (Rattus norvegicus)", "test": "as §1", "type": "cell-based", "remark": "listed apart in the source"}, "[20]": {"target": "T1, Glycine receptor subunit alpha-2 (Rattus norvegicus)", "test": "Effect on rat alpha2 homomeric glycine receptor expressed in CHO cells assessed as shortened single receptor burst opening in response to glycine-pulse at 10 uM by outside patch clamp technique", "type": "cell-based"}, "[21]": {"target": "T1, Glycine receptor subunit alpha-2 (Rattus norvegicus)", "test": "Effect on rat alpha2 homomeric glycine receptor expressed in CHO cells assessed as decrease in channel mean open time at 10 uM by outside patch clamp technique relative to control", "type": "cell-based"}, "[22]": {"target": "T1, Glycine receptor subunit alpha-2 (Rattus norvegicus)", "test": "Effect on rat alpha2 homomeric glycine receptor expressed in CHO cells assessed as decrease in activation phase of glycine response at 10 uM by outside patch clamp technique", "type": "cell-based"}, "[23]": {"target": "T1, Glycine receptor subunit alpha-2 (Rattus norvegicus)", "test": "Effect on rat alpha2 homomeric glycine receptor expressed in CHO cells assessed as change in rising time constant of glycine response at 10 uM by outside patch clamp technique", "type": "cell-based"}, "[24]": {"target": "T1, Glycine receptor subunit alpha-2 (Rattus norvegicus)", "test": "Effect on rat alpha2 homomeric glycine receptor expressed in CHO cells assessed as change in relative area of rising time constant of glycine response at 10 uM by outside patch clamp technique", "type": "cell-based"}, "[25]": {"target": "T1, Glycine receptor subunit alpha-2 (Rattus norvegicus)", "test": "Effect on rat alpha2 homomeric glycine receptor expressed in CHO cells assessed as decrease in glycine-evoked recovery time constant at 10 uM by outside patch clamp technique", "type": "cell-based"}, "[26]": {"target": "T1, Glycine receptor subunit alpha-2 (Rattus norvegicus)", "test": "Effect on rat alpha2 homomeric glycine receptor expressed in CHO cells assessed as glycine-evoked response at 10 uM administered before glycine challenge by outside patch clamp technique", "type": "cell-based"}, "[27]": {"target": "T1, Glycine receptor subunit alpha-2 (Rattus norvegicus)", "test": "Effect on rat alpha2 homomeric glycine receptor expressed in CHO cells assessed as shortened deactivation phase of glycine-evoked response at 10 uM administered before glycine challenge by outside patch clamp technique", "type": "cell-based"}, "[28]": {"target": "T1, Glycine receptor subunit alpha-2 (Rattus norvegicus)", "test": "Inhibition of rat alpha2 homomeric glycine receptor expressed in CHO cells assessed as inhibition of 30 mM glycine-elicited current at 10 uM by outside patch clamp technique"}},
  "note": "The source made the active and inactive calls. The calls are words filed in the database; no cut-off is given here.",
  "data": [
    {"smiles": "CC(C)(O)[C@@H]1[C@H]2OC(=O)[C@@H]1[C@]1(O)C[C@H]3O[C@]34C(=O)O[C@H]2[C@]14C", "note": "[PICROTIN]", "values": [
      {"measurement": "inhibition", "setting": "[1]", "value": 3.4, "unit": "%"},
      {"measurement": "IC50", "setting": "[2]", "value": 117, "unit": "µM"},
      {"measurement": "Activity", "setting": "[3]", "value": "Active"},
      {"measurement": "Activity", "setting": "[4]", "value": "Active"},
      {"measurement": "Activity", "setting": "[5]", "value": "Dose-dependent effect"},
      {"measurement": "Activity", "setting": "[6]", "value": "Active"},
      {"measurement": "Activity", "setting": "[7]", "value": "Active"},
      {"measurement": "Activity", "setting": "[8]", "value": 2.9, "unit": "ms"},
      {"measurement": "Activity", "setting": "[9]", "value": "Dose-dependent effect"},
      {"measurement": "Activity", "setting": "[10]", "value": "Active"},
      {"measurement": "Activity", "setting": "[11]", "value": 91.1, "unit": "%"},
      {"measurement": "Activity", "setting": "[12]", "value": 8.9, "unit": "%"},
      {"measurement": "Activity", "setting": "[13]", "value": "Active"},
      {"measurement": "Activity", "setting": "[14]", "value": "Active"},
      {"measurement": "inhibition", "setting": "[15]", "value": 36.3, "unit": "%"},
      {"measurement": "inhibition", "setting": "[16]", "value": 63.7, "unit": "%"}
    ]},
    {"smiles": "C=C(C)[C@@H]1[C@H]2OC(=O)[C@@H]1[C@]1(O)C[C@H]3O[C@]34C(=O)O[C@H]2[C@]14C", "note": "[PICROTOXININ]", "values": [
      {"measurement": "Activity", "setting": "[17]", "value": "Active"},
      {"measurement": "inhibition", "setting": "[1]", "value": 50, "unit": "%"},
      {"measurement": "IC50", "setting": "[2]", "value": 2.4, "unit": "µM"},
      {"measurement": "inhibition", "setting": "[18]", "value": 78.9, "unit": "%"},
      {"measurement": "Activity", "setting": "[19]", "value": "Active"},
      {"measurement": "Activity", "setting": "[5]", "value": "Dose-dependent effect"},
      {"measurement": "Activity", "setting": "[20]", "value": "Active"},
      {"measurement": "Activity", "setting": "[21]", "value": 9.3, "unit": "ms"},
      {"measurement": "Activity", "setting": "[9]", "value": "Dose-dependent effect"},
      {"measurement": "Activity", "setting": "[22]", "value": "Active"},
      {"measurement": "Activity", "setting": "[23]", "value": 81, "unit": "%"},
      {"measurement": "Activity", "setting": "[24]", "value": 19, "unit": "%"},
      {"measurement": "Activity", "setting": "[25]", "value": 17.6, "unit": "ms"},
      {"measurement": "Activity", "setting": "[26]", "value": "Active"},
      {"measurement": "Activity", "setting": "[27]", "value": "Active"},
      {"measurement": "inhibition", "setting": "[28]", "value": 47.4, "unit": "%"}
    ]}
  ]
}
